Experimental data from ChEMBL document CHEMBL3228011, “trans-5-(3,3,3-Trifluoro-1-propenyl-)-2'-deoxyuridylate: a mechanism-based inhibitor of thymidylate synthetase” (J Med Chem, 1979).
The source made the active and inactive calls. The rule behind the calls is not given here.

Key:
Thymidylate synthase [1] = target: T1, Thymidylate synthase (Homo sapiens, UniProt P04818); experiment: Binding affinity to thymidylate synthetase (unknown origin)
Target sequence in this assay (P04818 whole entry): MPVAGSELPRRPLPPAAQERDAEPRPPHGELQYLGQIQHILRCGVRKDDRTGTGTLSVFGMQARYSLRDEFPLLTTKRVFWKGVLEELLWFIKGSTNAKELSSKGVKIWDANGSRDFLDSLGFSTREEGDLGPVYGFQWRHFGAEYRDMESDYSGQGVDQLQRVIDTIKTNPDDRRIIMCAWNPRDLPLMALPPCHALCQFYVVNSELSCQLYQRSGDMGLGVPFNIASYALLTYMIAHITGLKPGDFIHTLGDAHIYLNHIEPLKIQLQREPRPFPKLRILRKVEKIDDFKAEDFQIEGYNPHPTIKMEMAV

Thymidylate synthase [2] = target: T1, Thymidylate synthase; experiment: Inhibition of thymidylate synthetase (unknown origin) assessed as decrease of first order enzyme activity in absence of 5,10-methylenetetrahydrofolate and presence of dUMP
Target sequence in this assay (P04818 2-313 limits assumed): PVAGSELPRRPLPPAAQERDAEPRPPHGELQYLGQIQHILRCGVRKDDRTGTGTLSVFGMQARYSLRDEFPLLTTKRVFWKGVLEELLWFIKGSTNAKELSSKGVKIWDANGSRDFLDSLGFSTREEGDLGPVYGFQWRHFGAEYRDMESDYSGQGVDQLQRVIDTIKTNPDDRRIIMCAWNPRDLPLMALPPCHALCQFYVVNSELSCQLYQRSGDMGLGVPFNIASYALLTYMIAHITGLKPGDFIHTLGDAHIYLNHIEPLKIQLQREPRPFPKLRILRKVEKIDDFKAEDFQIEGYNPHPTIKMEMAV

Thymidylate synthase [3] = target: T1, Thymidylate synthase; experiment: Inhibition of thymidylate synthetase (unknown origin) assessed as decrease of first order enzyme activity in absence of 5,10-methylenetetrahydrofolate
Target sequence in this assay (P04818 2-313 limits assumed): as above

Thymidylate synthase [4] = target: T1, Thymidylate synthase; experiment: Competitive inhibition of thymidylate synthetase (unknown origin) in presence of 5,10-methylenetetrahydrofolate
Target sequence in this assay (P04818 whole entry): as the sequence (P04818 whole entry) above

## O=c1[nH]c(=O)n([C@H]2C[C@H](O)[C@@H](COP(=O)(O)O)O2)cc1/C=C/C(F)(F)F
Thymidylate synthase [1]
  Kd: 25 µM
Thymidylate synthase [2]
  inhibition: inactive
Thymidylate synthase [3]
  inhibition: Active
Thymidylate synthase [4]
  Ki: 8.6 µM
